Data reported in patent US10633353B2, “Polymerizable compound, composition, polymer, optically anisotropic body, liquid crystal display element, and organic EL display” (DIC Corporation, priority 2014, dated 2020).

assay: Preservation stability of the coating liquid; type: physicochemical; conditions: coating liquid stored for 2 months shielded from light at 0° C.; appearance and GPC
Protocol: The preservation stability of the coating liquid was evaluated on a scale of A to E on the basis of the state of the coating liquid that was stored for 2 months under a condition where the coating liquid was shielded from light at 0° C.
A: No visual change in the appearance of the coating liquid was confirmed. A GPC analysis of the coating liquid confirmed that the change in the composition of the coating liquid was 1% or less.
B: No visual change in the appearance of the coating liquid was confirmed. A GPC analysis of the coating liquid confirmed that the change in the composition of the coating liquid was 2% or less.
C: A visual change in the appearance of the coating liquid was confirmed; a trace amount of insoluble components were confirmed, or a GPC analysis of the coating liquid confirmed that the change in the composition of the coating liquid was 3% or less.
D: A visual change in the appearance of the coating liquid was confirmed; insoluble components were confirmed. The ratio of the weight of the insoluble components to the total solid content was 5% or less.
E: A large amount of insoluble components were visually confirmed. The ratio of the weight of the insoluble components to the total solid content was 5% or more.

| Compound | Preservation stability |
| --- | --- |
| C=CC(=O)OCCCCCCOc1ccc(OC(=O)C2CCC(COc3ccc(OCC4CCC(C(=O)Oc5ccc(OCCCCCCOC(=O)C=C)cc5)CC4)c(/C=N/N(CCOCCOC)c4nc5ccccc5s4)c3)CC2)cc1 (centres unmarked) [1-cmn-91] | A (No visual change in the appearance of the coating liquid was confirmed. A GPC analysis of the coating liquid confirmed that the change in the composition of the coating liquid was 1% or less.) |
| C=CC(=O)OCCCOc1ccc(OC(=O)C2CCC(COc3ccc(OCC4CCC(C(=O)Oc5ccc(OCCCOC(=O)C=C)cc5)CC4)c(/C=N/N(CCOCCOC)c4nc5ccccc5s4)c3)CC2)cc1 (centres unmarked) [1-cmn-92] | A (No visual change in the appearance of the coating liquid was confirmed. A GPC analysis of the coating liquid confirmed that the change in the composition of the coating liquid was 1% or less.) |
| C=CC(=O)OCCCCCCOc1ccc(OC(=O)C2CCC(COc3ccc(OCC4CCC(C(=O)Oc5ccc(OCCCCCCOC(=O)C=C)cc5)CC4)c(/C=N/N(CCOC(=O)C=C)c4nc5ccccc5s4)c3)CC2)cc1 (centres unmarked) [1-cmn-93] | A (No visual change in the appearance of the coating liquid was confirmed. A GPC analysis of the coating liquid confirmed that the change in the composition of the coating liquid was 1% or less.) |
| C=CC(=O)OCCCCCCOc1ccc(OC(=O)C2CCC(COc3ccc(OCC4CCC(C(=O)Oc5ccc(OCCCCCCOC(=O)C=C)cc5)CC4)c(/C=N/N(CCOCCOCCOC(=O)C=C)c4nc5ccccc5s4)c3)CC2)cc1 (centres unmarked) [1-cmn-94] | A (No visual change in the appearance of the coating liquid was confirmed. A GPC analysis of the coating liquid confirmed that the change in the composition of the coating liquid was 1% or less.) |
| C=CC(=O)OCCCOc1ccc(OC(=O)C2CCC(COc3ccc(OCC4CCC(C(=O)Oc5ccc(OCCCOC(=O)C=C)cc5)CC4)c(/C=N/N(C(=O)C=C)c4nc5ccccc5s4)c3)CC2)cc1 (centres unmarked) [1-cmn-107] | A (No visual change in the appearance of the coating liquid was confirmed. A GPC analysis of the coating liquid confirmed that the change in the composition of the coating liquid was 1% or less.) |
| C=CC(=O)OCCCCCCOc1ccc(OC(=O)C2CCC(COc3ccc(OCC4CCC(C(=O)Oc5ccc(OCCCCCCOC(=O)C=C)cc5)CC4)c(/C=N/N(C(=O)C=C)c4nc5ccccc5s4)c3)CC2)cc1 (centres unmarked) [1-cmn-108] | A (No visual change in the appearance of the coating liquid was confirmed. A GPC analysis of the coating liquid confirmed that the change in the composition of the coating liquid was 1% or less.) |
| C=CC(=O)OCCCCCCOc1ccc(C(=O)Oc2ccc(OC(=O)c3ccc(OCCCCCCOC(=O)C=C)cc3)c(/C=N/N(CCCCCC)c3nc4ccccc4s3)c2)cc1 [1-cn-83] | A (No visual change in the appearance of the coating liquid was confirmed. A GPC analysis of the coating liquid confirmed that the change in the composition of the coating liquid was 1% or less.) |
| C=CC(=O)OCCCOc1ccc(C(=O)Oc2ccc(OCCCOC(=O)C=C)cc2/C=N/Nc2nc3ccccc3s2)cc1 [1-e-69] | A (No visual change in the appearance of the coating liquid was confirmed. A GPC analysis of the coating liquid confirmed that the change in the composition of the coating liquid was 1% or less.) |
| C=CC(=O)OCCCCCCOc1ccc(C(=O)Oc2ccc(OCCCCCCOC(=O)C=C)cc2/C=N/Nc2nc3ccccc3s2)cc1 [1-e-70] | A (No visual change in the appearance of the coating liquid was confirmed. A GPC analysis of the coating liquid confirmed that the change in the composition of the coating liquid was 1% or less.) |
| C=CC(=O)OCCCCCCOc1ccc(C(=O)Oc2ccc3cc(OCCCCCCOC(=O)C=C)ccc3c2/C=N/Nc2nc3ccccc3s2)cc1 [1-e-73] | A (No visual change in the appearance of the coating liquid was confirmed. A GPC analysis of the coating liquid confirmed that the change in the composition of the coating liquid was 1% or less.) |
| C=CC(=O)OCCCOc1ccc(C(=O)Oc2ccc(C(=O)Oc3ccc(OCCCOC(=O)C=C)cc3/C=N/Nc3nc4ccccc4s3)cc2)cc1 [1-eh-71] | A (No visual change in the appearance of the coating liquid was confirmed. A GPC analysis of the coating liquid confirmed that the change in the composition of the coating liquid was 1% or less.) |
